# According to patent publication US20160212993A1, “ADJUVANT COMPOSITIONS” (SYNGENTA LIMITED, priority 2012, published 2016):
# Assays:
# Type in all cases: in vivo
# [1] = test system: Puccinia recondita f. Sp. Tritici; experiment: Puccinia recondita f. sp. tritici / wheat / curative (brown rust on wheat), PUCCTRZ/ff-cu; parameters: key: % disease control relative to untreated check plants; details: 0.20%, average of three replicates
# Experimental: (§1) In general, active ingredient is formulated (SC, SL) and just before spraying the formulations are mixed with water and ultrasonically agitated in order to achieve homogeneous distribution. Spray solutions are made up in water. Adjuvants are added as tank mix to the spray solution just before application. Foliar application is at 200 L/ha in an application device spraying with a single nozzle (type Lechler) 60 cm above the plants. Preventative tests are performed as 1 or 2 day preventative applications, i.e. plants are treated with the compounds 1 or 2 days prior to artificial inoculation with fungal spores, whereas for curative tests the inoculation is carried out prior to application. A single evaluation of disease level is made 5 to 48 days after inoculation, depending on the pathosystem. Disease control relative to the untreated check plants is then calculated. In the following examples, all treatments were sprayed at […] spray volume in 10% isopropanol solution to normalise foliar retention: Azoxystrobin;—Quadris SC250, Isopyrazam;—SC250, Cyproconazole: —Alto SL100, Chlorothalonil; Bravo SC720
# Puccinia recondita f. Sp. Tritici/Wheat/Curative (Brown Rust on Wheat)->PUCCTRZ/ff-cu-S:
# 2-week old wheat plants cv. Arina are inoculated by spraying them with a spore suspension two days before application. After an incubation period of 1 day at 20° C. and 95% rh followed by 1 day at 20° C. and 60% rh in a greenhouse, the inoculated test plants are sprayed in a spray chamber with the formulated test compound diluted in water. After additional incubation at 20° C./18° C. (day/night) and 60% rh in a greenhouse, the percentage leaf area covered by disease is assessed when an appropriate level of disease appears on untreated check plants (9-12 days after application).
# Alternaria solani = Alternaria solani / tomato / preventative, ALTELYP/ff-pr; details: Table 4, adjuvant alone, 0.20%, average of three replicates
# Experimental: as §1
# Alternaria solani/Tomato/Preventative (Alternaria on Tomato)->ALTELYP/ff-pr-S:
# 4-week old tomato plants cv. Roter Gnom are sprayed in a spray chamber with the formulated test compound diluted in water. The test plants are inoculated by spraying them with a spore suspension two days after application. The inoculated test plants are incubated at 22/18° C. (day/night) and 95% rh in a greenhouse and the percentage leaf area covered by disease is assessed when an appropriate level of disease appears on untreated check plants (5-7 days after application).
# [2] = test system: Mycosphaerella graminicola (Septoria tritici); experiment: Mycosphaerella graminicola (Septoria tritici) / wheat / preventative, SEPTTRZ/ff-pr; details: Table 3, adjuvant alone, 0.20%, average of three replicates
# Experimental: as §1
# Mycosphaerella graminicola (Septoria tritici)/Wheat/Preventative (Septoria tritici Leaf Spot on Wheat)->SEPTTRZ/ff-pr-S:
# 2-week old wheat plants cv. Riband are sprayed in a spray chamber with the formulated test compound diluted in water. The test plants are inoculated by spraying a spore suspension on them one day after application. After an incubation period of 1 day at 22° C./21° C. (day/night) and 95% rh, the inoculated test plants are kept at 22° C./21° C. (day/night) and 70% rh in a greenhouse. Percentage leaf area covered by disease was assessed and efficacy was calculated compare to untreated controls when an appropriate level of disease appears on untreated check plants (16-19 days after application).
# [3] = test system: Puccinia recondita f. Sp. Tritici; experiment: Puccinia recondita f. sp. tritici / wheat / preventative (brown rust on wheat), PUCCTRZ/ff-pr; parameters: key: % disease control relative to untreated check; details: 0.20%, average of three replicates
# Experimental: as §1
# Puccinia recondita f. Sp. Tritici/Wheat/Preventative (Brown Rust on Wheat)->PUCCTRZ/ff-pr-S:
# 2-week old wheat plants cv. Arina are sprayed in a spray chamber with the formulated test compound diluted in water. The test plants are inoculated by spraying them with a spore suspension one day after application. After an incubation period of 1 day at 20° C. and 95% rh, the inoculated test plants are kept at 20° C./18° C. (day/night) and 60% rh in a greenhouse. The percentage leaf area covered by disease is assessed when an appropriate level of disease appears on untreated check plants (12-14 days after application).
Molecule,"PUCCTRZ/ff-cu, visual assessment of control ([1]; Table 1, adjuvant alone)","PUCCTRZ/ff-cu, visual assessment of control ([1]; Table 2, adjuvant alone)","ALTELYP/ff-pr, visual assessment of control (Alternaria solani)","SEPTTRZ/ff-pr, visual assessment of control [2]","PUCCTRZ/ff-pr, visual assessment of control ([3]; Table 1, adjuvant alone)","PUCCTRZ/ff-pr, visual assessment of control ([3]; Table 2, adjuvant alone)","PUCCTRZ/ff-pr, visual assessment of control ([3]; Table 3, adjuvant alone)","PUCCTRZ/ff-pr, visual assessment of control ([3]; Table 4, adjuvant alone)"
Nopol-5PO-9EO [Nopol-5PO-9EO (Rhodoclean MSC)],0,0,0,15,0,0,0,0
Nopol-5PO-7EO [Nopol-5PO-7EO (Rhodoclean EFC)],0,0,6,0,0,0,0,0
Nopol-5PO-25EO [Nopol-5PO-25EO (Rhodoclean 525)],0,0,2,7,0,0,0,0
"CCCCCCCC/C=C\CCCCCCCC(=O)OC [Methyl oleate, reference compound]",0,0,0,0,0,0,0,0
